In series [1] the target is CCR5 receptor (Homo sapiens, UniProt P51681). In words: [35S]GTPγS binding assay. It counts as biochemical. An excerpt: [^35S]GTPγS binding assay
CCR5 receptor binds to agonists and changes its conformation which enables it to interact with and activate G protein, a heterotrimer which consists of subunits α and βγ. The capability of G protein α subunit binding to GTP depends on the effect between CCR5 and the agonists, therefore, the amount of α subunit bound GTP should reflect the agonists activity on the CCR5 receptor. In the GTPγS binding assay, [^35S]GTPγS is resistant to the GTPase activity of α subunit, and thus cannot be hydrolyzed when bound to G protein, making it accurate to reflect the receptor activation. Radiolabled [^35S]GTPγS can also serve as marker for detection in place of GTP. When CCR5 is not activated, α subunit is bound to GDP, but when CCR5 is activated, α subunit binds to [^35S]GTPγS, therefore, measurement of the number of the α subunit-bound ^35S-GTPγS can reflect the CCR5 activation level.
CCR5 activation of G-protein was measured according to assays below:
Permanent cell line expressing CHO of CCR5 (available at Euroscreen S.A., Belgium) was lysed by lysis buffer (5 mM Tris HCl, pH 7.5, 5 mM EDTA and 5 mM EGTA), and centrifuged at 15,000×g for 10 min. Cell membrane was resuspended with reaction buffer (5 mM Tris HCl, pH 7.5, 5 mM MgCl2, 1 mM EGTA, 100 mM NaCl), and protein concentrations were determined using Bioford assay (Bio-rad). [^35S]GTPγS binding assay was performed in the 100 μl reaction buffer system, which contains 10 ug membrane protein, 40 uM GDP and 0.5 nM [^35S]GTPγS (1200 Ci/mmol). After adding the study compounds, the system was vortexed and placed on ice for 5 min, and then CCR5 agonist was added (10 nM RANTES or 30 nM MIP1β). After vortexing, the reaction tubes were incubated at 30° C. for 1 h. After the reaction was complete, the reaction tubes were placed on ice and diluted with PBS to terminate the reaction. After suction through the GF/C filter membrane under vacuum, the membrane bound radioactivity was measured with a scintillation counter. Basal binding was measured without presence of agonist, and non-specific binding was measured in the presence of 10 mM nonisotopical GTPγS. The binding ratio of [^35S]GTPγS was calculated according to 100×[c.p.m.sample−c.p.m. non-specific]/[c.p.m.basal−c.p.m. non-specific]. IC50 was the compound concentration at which half of the [^35S]GTPγS binding induced by 10 nM RANTES or 30 nM MIP1β was inhibited, and the value was obtained from the concentration-inhibition curve (6-7 points for concentrations of each compound).
(In general: Binding of GTPγS marks nucleotide exchange on a G protein.)

Series [2] concerns peripheral blood monouclear cells (PBMC), Jurket. In words: MTT cytotoxicity assay. It counts as cell-based. Conditions: at 10,000 nM. As to the method: (§1) C. MTT Cytotoxicity Assay
(§2) Cells were prepared as single cell suspension, and cell densities were adjusted according to the cell size and cell features. Cells were inoculated with 100 ul culture media into 96 well plates, and incubated in 37° C. incubator (5% CO2, saturated humidity). The seeding densities were as follows: peripheral blood monouclear cells (PBMC) 10^5 cells /well, Jurket 4×10^4 cells/well. 24 h after cell inoculation, the compounds to be tested were added and incubated with cells. 48 h after inoculation, 10 μl MTT (Sigma, USA, 5 mg/ml, diluted with PBS and stored at −20° C.) was added to each well, and incubated for another 4 h in 37° C. incubator. Then add 50 μl formazane solvent (10%SDS-5%isopropanol−0.01M HCl) and incubate overnight. Determine OD570/OD630 nm at spectrophotometer, and calculate CC50 according to the inhibition curve.

The nature of series [3]: MTT cytotoxicity assay. Particulars: human, peripheral blood mononuclear cells (PBMC) and Jurkat cells; MTT. It counts as cell-based. As for the experimental part:
as §1, §2
In general terms: Tetrazolium dyes change colour on reduction, which living cells bring about.

The target of series [4] is T1, CCR1 (Homo sapiens, UniProt P32246).
T1 sequence (P32246 1-355): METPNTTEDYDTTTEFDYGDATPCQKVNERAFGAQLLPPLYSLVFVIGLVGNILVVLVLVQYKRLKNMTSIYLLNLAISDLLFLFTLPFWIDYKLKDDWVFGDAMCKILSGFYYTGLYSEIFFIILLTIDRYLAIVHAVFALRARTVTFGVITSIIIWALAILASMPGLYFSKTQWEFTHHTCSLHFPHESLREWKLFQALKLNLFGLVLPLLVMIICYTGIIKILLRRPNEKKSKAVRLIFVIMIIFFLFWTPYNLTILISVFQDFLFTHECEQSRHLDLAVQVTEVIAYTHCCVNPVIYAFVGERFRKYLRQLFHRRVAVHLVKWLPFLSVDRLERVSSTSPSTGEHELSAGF
Kind of series: effects on the activation of CCR1 receptor. Particulars: at the concentration of 10,000 nM.

The target of series [5] is CXCR4 (Homo sapiens, UniProt P61073). Kind of series: effects on the activation of CXCR4 receptor. Conditions: at the concentration of 10,000 nM.
Setting [6] is: Table I, [35S]GTPγS binding, read-out: IC50.
Setting [7] is: [35S]GTPγS binding initiated by 10 nM RANTES, read-out: IC50(nM) ± S.E.
[8] abbreviates: Table I, class symbols, inhibition at 10,000 nM, read-out: IC50.
Setting [9] is: [35S]GTPγS binding initiated by 10 nM RANTES, class symbols, inhibition at 10,000 nM, read-out: IC50(nM) ± S.E.

Read-outs that look alike come from different tables or passages of the source.

Sequence of CCR5 receptor (P51681 whole entry): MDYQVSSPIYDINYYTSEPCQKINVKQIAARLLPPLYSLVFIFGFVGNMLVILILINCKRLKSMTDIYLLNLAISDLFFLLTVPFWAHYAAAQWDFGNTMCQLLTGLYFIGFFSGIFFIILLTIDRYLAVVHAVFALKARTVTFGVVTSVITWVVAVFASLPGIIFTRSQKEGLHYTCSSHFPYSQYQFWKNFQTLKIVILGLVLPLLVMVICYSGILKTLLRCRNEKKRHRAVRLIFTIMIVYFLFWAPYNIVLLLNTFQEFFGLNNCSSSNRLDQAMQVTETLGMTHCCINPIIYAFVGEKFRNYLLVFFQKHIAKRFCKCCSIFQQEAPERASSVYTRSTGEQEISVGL
Sequence of CXCR4 (P61073 whole entry, species assumed): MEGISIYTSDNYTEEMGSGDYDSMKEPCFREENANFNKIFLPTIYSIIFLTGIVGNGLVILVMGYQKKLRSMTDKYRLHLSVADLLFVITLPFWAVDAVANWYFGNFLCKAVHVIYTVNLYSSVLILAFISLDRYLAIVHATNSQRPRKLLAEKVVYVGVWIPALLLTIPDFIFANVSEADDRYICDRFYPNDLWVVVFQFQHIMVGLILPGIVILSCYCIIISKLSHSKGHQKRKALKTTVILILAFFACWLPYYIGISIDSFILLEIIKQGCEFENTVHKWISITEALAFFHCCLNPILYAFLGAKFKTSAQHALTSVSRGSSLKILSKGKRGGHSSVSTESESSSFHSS

As a reminder, the IC50 is the concentration that gives 50% inhibition. As for `OC1(c2ccc3c(c2)OCO3)CN(Cc2ccccc2)CC1CN1CCC(c2ccccc2)CC1` (centres unmarked) [I-a-a, 1-benzyl-3-(benzo[1,3]dioxol-5-yl)-4-[(4-phenylpiperidin-1-yl)methyl]pyrrolidin-3-ol], the IC50 in series [1] (setting [6]) and in series [1] (setting [7]) was ~10000 nM each time.
For `O=C(c1ccccc1)N1CC(CN2CCC(c3ccccc3)CC2)C(O)(c2ccccc2)C1` (centres unmarked) [I-b-b, (3-hydroxy-3-phenyl-4-[(4-phenylpiperidin-1-yl)methyl]pyrrolidin-1-yl)(phenyl)methanone], the IC50 worked out at 2860 ± 860 nM in series [1] (setting [6]) and 2860 ± 60 nM in series [1] (setting [7]).
For `O=C(c1ccccc1I)N1CC(CN2CCC(c3ccccc3)CC2)C(O)(c2ccccc2)C1` (centres unmarked) [I-b-c, (3-hydroxy-3-phenyl-4-[(4-phenylpiperidin-1-yl)methyl]pyrrolidin-1-yl)(2-iodophenyl) methanone], in that order: 1160 ± 224 nM and 1160 ± 224 nM.
For `O=S(=O)(c1ccccc1)N1CC(CN2CCC(c3ccccc3)CC2)C(O)(c2ccccc2)C1` (centres unmarked) [I-b-d, 3-phenyl-4-[(4-phenylpiperidin-1-yl)methyl]-1-(phenylsulfonyl)pyrrolidin-3-ol], the IC50 in series [1] (setting [8]) and in series [1] (setting [9]) was > 10000 nM in each case.
In the case of `O=C(C1CCCC1)N1CC(CN2CCC(c3ccccc3)CC2)C(O)(c2ccccc2)C1` (centres unmarked) [I-b-e, Cyclopentyl-(3-hydroxy-3-phenyl-4-[(4-phenylpiperidin-1-yl)methyl]pyrrolidin-1-yl)metha none], the half-inhibitory concentration (IC50) in series [1] (setting [6]) and in series [1] (setting [7]) was 1890 ± 615 nM each time.
Turning to `OC1(c2ccccc2)CN(Cc2ccccc2)CC1CN1CCC(CCCc2ccccc2)CC1` (centres unmarked) [I-b-g, 1-benzyl-3-phenyl-4-{[4-(3-phenylpropyl)piperidin-1-yl]methyl}pyrrolidin-3-ol], the IC50 in series [1] (setting [6]) and in series [1] (setting [7]) was 408 ± 10.5 nM throughout.
`OC1(CCCc2ccccc2)CCN(CC2CN(Cc3ccccc3)CC2(O)c2ccccc2)CC1` (centres unmarked) [I-b-h, 1-[(1-benzyl-4-hydroxy-4-phenylpyrrolidin-3-yl)methyl]-4-(3-phenylpropyl)piperidin-4-ol]: the IC50 in series [1] (setting [6]) and in series [1] (setting [7]) was 368 ± 52 nM throughout.
Regarding `OC1(c2ccc(F)cc2)CN(Cc2ccccc2)CC1CN1CCC(c2ccccc2)CC1` (centres unmarked) [I-b-j, 1-benzyl-3-(4-fluorophenyl)-4-((4-phenylpiperidin-1-yl)methyl)pyrrolidin-3-ol], the IC50 in series [1] (setting [8]) and in series [1] (setting [9]) was > 10000 nM each time.
Consider `OC1(CCCc2ccccc2)CCN(CC2CN(Cc3ccccc3)CC2(O)c2ccc(F)cc2)CC1` (centres unmarked) [I-b-k, 1-{[1-benzyl-4-(4-fluorophenyl)-4-hydroxypyrrolidin-3-yl]methyl}-4-(3-phenylpropyl)piper idin-4-ol], for which the half-inhibitory concentration (IC50) in series [1] (setting [6]) and in series [1] (setting [7]) was 2510 nM in each case.
The term CC50 denotes the concentration that lowers cell viability or growth by half. A high value points to better tolerance by the cells. For `CCN(C(=O)OCc1ccccc1)C1CCN(CC2CN(Cc3ccccc3)CC2(O)c2ccccc2)CC1` (centres unmarked) [II-a-a, Benzyl 1-[(1-benzyl-4-hydroxy-4-phenylpyrrolidin-3-yl)methyl]piperidin-4-yl (ethyl)carbamate], in series [2], the cytotoxicity on cells entry is “no significant cytotoxicity”. The CC50 at 24 h in series [3] was ~30000 nM. In series [4], the “activation or antagonism of CCR1 receptor” value is reported as “do not activate or antagonize”. Besides, in series [5], the “activation or antagonism of CXCR4 receptor” value was “do not activate or antagonize”. Also, the IC50 in series [1] (setting [6]) and in series [1] (setting [7]) was 401 ± 87.5 nM throughout.
Consider `CCN(C(=O)OCc1ccccc1)C1CCN(CC2CN(Cc3ccccc3)CC2(O)c2ccc(F)cc2)CC1` (centres unmarked) [II-a-b, Benzyl 1-[(1-benzyl-4-(4-fluorophenyl)-4-hydroxypyrrolidin-3-yl)methyl]piperidin-4-yl (ethyl)carbamate], for which the IC50 in series [1] (setting [6]) and in series [1] (setting [7]) was 565 ± 64.5 nM each time.
With `CCN(C(=O)OCc1ccccc1)C1CCN(CC2CN(Cc3ccccc3)CC2(C)O)CC1` (centres unmarked) [II-a-c], the IC50 in series [1] (setting [8]) and in series [1] (setting [9]) was > 10000 nM in each case.
Take `C=CCN(C(=O)OCc1ccc([N+](=O)[O-])cc1)C1CCN(CC2CN(Cc3ccccc3)CC2(O)c2ccccc2)CC1` (centres unmarked) [III-a-a, 4-nitrobenzyl allyl(1-((1-benzyl-4-hydroxy-4-phenylpyrrolidin-3-yl)methyl)piperidin-4-yl) carbamate]: the “activation or antagonism of CCR1 receptor” value in series [4] is given as “do not activate or antagonize”. The “activation or antagonism of CXCR4 receptor” value in series [5] was “do not activate or antagonize”. The IC50 in series [1] (setting [6]) and in series [1] (setting [7]) was ~10000 nM throughout.
For the compound `C=CCN(C(=O)OCc1ccccc1)C1CCN(CC2CN(C(=O)C3CCCC3)CC2(O)c2ccccc2)CC1` (centres unmarked) [III-a-h, benzyl allyl(1-((1-(cyclo-pentanecarbonyl)-4-hydroxy-4-phenylpyrrolidin-3-yl)methyl)piperi-din-4-yl) carbamate], the IC50 in series [1] (setting [6]) and in series [1] (setting [7]) was 8.75 nM each time.
Turning to `C=CCN(C(=O)OCc1ccc(OC)cc1)C1CCN(CC2CN(C(=O)C3CCCC3)CC2(O)c2ccccc2)CC1` (centres unmarked) [III-a-i, 4-methoxybenzyl allyl(1-((1-(cyclo-pentanecarbonyl)-4-hydroxy-4-phenylpyrrolidin-3-yl)methyl)piperi-din-4-yl) carbamate], the concentration for half-maximal inhibition (IC50) in series [1] (setting [6]) and in series [1] (setting [7]) was 4.33 nM throughout.
As for `C=CCN(C(=O)OCc1ccc(Br)cc1)C1CCN(CC2CN(C(=O)C3CCCC3)CC2(O)c2ccccc2)CC1` (centres unmarked) [III-a-j, 4-bromobenzyl allyl(1-((1-cyclo-pentanecar-bonyl)-4-hydroxy-4-phenylpyrrolidin-3-yl)methyl) piperidin-4-yl) carbamate], the IC50 in series [1] (setting [6]) and in series [1] (setting [7]) was 8.87 nM each time.
Consider `C=CCN(C(=O)Nc1ccccc1)C1CCN(CC2CN(C(=O)C3CCCC3)CC2(O)c2ccccc2)CC1` (centres unmarked) [III-a-k, 1-allyl-1-(1-((1-(cyclopentane-carbonyl)-4-hydroxy-4-phenylpyrrolidin-3-yl)methyl)piperidin-4-yl)-3-phenylurea], for which the IC50 in series [1] (setting [6]) and in series [1] (setting [7]) was 6.46 nM throughout.
Take `C=CCN(C(=O)COc1ccccc1)C1CCN(CC2CN(C(=O)C3CCCC3)CC2(O)c2ccccc2)CC1` (centres unmarked) [III-a-l, N-allyl-N-(1-((1-(cyclopen-tanecarbonyl)-4-hydroxy-4-phenylpyrrolidin-3-yl)methyl)piperi-din-4-yl)-3-phenoxy acetamide]: the IC50 in series [1] (setting [6]) and in series [1] (setting [7]) was 13.6 nM throughout.
On to `C[C@H]1[C@@H](CN2CCC(c3ccccc3)CC2)C(O)(c2ccccc2)CN1Cc1ccccc1` (some centres unmarked) [IV-a-a, 1-benzyl-5-methyl-3-phenyl-4-[(4-phenylpiperi-din-1-yl)methyl]py-rrolidin-3-ol], for which the IC50 in series [1] (setting [8]) and in series [1] (setting [9]) was > 10000 nM each time.

The values above are taken from patent US20070161634A1, “Compounds as CCR5 antagonists” (priority 2004, published 2007).
